Source: patent US20060264414A1, “Fluorous 2,2'-bipyridines and fluorinated biphasic sysems for ligand design” (The Board of Regents, University and Community College …, priority 2005, published 2006)
Where two headings read alike, the source gives them in different places. Marks after values point to notes of the source that are not given here.

Tests used:
[1] = Fluorous partition coefficient, CF3C6F11/toluene, GLC method; format: physicochemical; details: 1:1 v/v perfluoromethylcyclohexane and toluene
Text: Fluorous partition coefficients (FPCs) were obtained for 1-4 for a 1:1 v/v biphasic mixture of “fluorous” solvent perfluoromethylcyclohexane, CF3C6F11 and toluene.

[2] = value from ref. 13; cited from earlier work
[3] = Cyclic voltammetry reduction potentials; format: physicochemical; details: THF; for ΔEp: scan rate 10 V/sec, TBAPF6; for E1/2: vs. SCE, 10 μm Pt ultramicroelectrode
Text: THF was found suitable for this study as 1-3 have sufficient solubility and the electrochemical potential window (+1.2 V to −3 V vs. SCE) extends to the potential range of interest.

[4] = in DMF, known values; cited from earlier work
[5] = system: Breast Cancer Cells (DC4 and DB-46); assay: Survival studies (Clonogenic Assay); format: cell-based; details: 10 micromolar Pt agent, DC4 and DB-46 cells
Text: Plots are appended to this document that provide viable cells vs. concentration of Pt agent.

Molecule	FPC = Cbpy(CF3C6F11)/Cbpy(toluene) [1]	ΔEp [3] [mV]	E1/2 [3] [V]	reduction potential [4] [V]	further results
FC(F)(F)C(F)(F)C(F)(F)C(F)(F)C(F)(F)C(F)(F)C(F)(F)C(F)(F)C(F)(F)C(F)(F)CCCc1ccnc(-c2cc(CCCC(F)(F)C(F)(F)C(F)(F)C(F)(F)C(F)(F)C(F)(F)C(F)(F)C(F)(F)C(F)(F)C(F)(F)F)ccn2)c1 [Ligand 4]	11	–	–	–	fi = fluorophilicity = ln[FPC] [1]: +2.4
FC(F)(F)C(F)(F)C(F)(F)C(F)(F)C(F)(F)C(F)(F)C(F)(F)C(F)(F)CCCCc1ccnc(-c2cc(CCCCC(F)(F)C(F)(F)C(F)(F)C(F)(F)C(F)(F)C(F)(F)C(F)(F)C(F)(F)F)ccn2)c1 [—(CH2)4Rf8, 4,4′-di-[(CH2)4(CF2)7CF3]-2,2′-bipyridine]	–	–	–	–	FPC = Cbpy(CF3C6F11)/Cbpy(toluene) [2]: 0.67^c; fi = fluorophilicity = ln[FPC] [2]: −0.40^c
CCCCCCCCCc1ccnc(-c2cc(CCCCCCCCC)ccn2)c1 [—(CH2)8CH3]	no compound in the CF3C6F11 layer	299	−2.501	–	–
Cc1ccnc(-c2cc(C)ccn2)c1 [—CH3, 4,4′-dimethyl-2,2′-bipyridine]	no compound in the CF3C6F11 layer	253	−2.493	−2.68	–
c1ccc(-c2ccccn2)nc1 [—H, 2,2′-bipyridine]	–	–	–	−2.60	–
[4,4′-Bis(4,4,4-trifluorobutyl)-2,2′-bipyridine]PtCl2 [Complex 1]	–	–	–	–	colonies surviving / survival [5]: around 2%
